Measurements reported in patent publication US20220096421A1, “Active Ingredient, Pharmaceutical Composition, and Medicinal Product for HIV and AIDS Therapy” (priority 2019, published 2022).
Entries after “also recorded” stand apart in the source; their conditions may differ. Where two headings read alike, the source gives them in different places.

How the values were obtained:
[1] = test system: HIV-1; assay: Efficacy, safety and optimal dosage study in previously untreated HIV-1-infected patients versus Efavirenz; details: for development of HIV-1 resistance: patients, at the studied doses; for viral load decrease: week 12; for viral load decrease / viral load change: 20 mg MMSCs of formula Ib, 600 mg Efavirenz; for viral load change: week 24
Protocol: Doses of 20 mg/day (60 patients) and 40 mg/day (60 patients) of MMSCs of formula Ib were studied versus 600 mg/day of Efavirenz (30 patients).
Doses of 20.7 mg/day (60 patients) and 41.4 mg/day (60 patients) of MMSCs of formula Ib were studied in comparison with Efavirenz (600 mg/day, 30 patients).

[2] = Pharmacokinetics in healthy volunteers with repeated weekly administration; assay type: in vivo, human; details: for Cmax / concentration at 168 h: human, in vivo, oral; for Cmax: read-out: Cmax of active metabolite Ia in the first week; for concentration at 168 h: read-out: concentration of active metabolite Ia a week later (168 hours)
[3] = Clinical trial in healthy volunteers, pharmacokinetics with daily administration of capsules; details: constant administration, average
Protocol: The concentration-time pattern of metabolite Ia in the blood was evaluated by its content in the plasma and blood cells.

O=C1Nc2ccc(Cl)cc2[C@@](C#CC2CC2)(C(F)(F)F)O1 [Efavirenz, reference compound]
development of HIV-1 resistance [1]: No development of HIV-1 resistance was established; also recorded: has not been established
viral load decrease [1]: −2.7±1.0
viral load change [1]: −3.3±0.8

N#Cc1cc(Cl)cc(Oc2c(Br)ccc(CC(=O)Nc3ccc(S(N)(=O)=O)cc3Cl)c2F)c1 [Ia]
time to maximum concentration of active metabolite Ia in the first week ([2]; 41.4, 82.8 or 124.2 mg/week, after taking the drug): approximately 5.5 hours
Cmax ([2]; 41.4 mg/week): 34.5 ng/mL
concentration at 168 h ([2]; 41.4 mg/week): 26.1 ng/mL
Cmax ([2]; 82.8 mg/week): 63.6 ng/mL
concentration at 168 h ([2]; 82.8 mg/week): 36.9 ng/mL
Cmax ([2]; 124.2 mg/week): 117 ng/mL
concentration at 168 h ([2]; 124.2 mg/week): 57.2 ng/mL
time of dosing to maximum plasma concentration of active metabolite Ia ([3]; 10 mg/day): 9.8 days
time of dosing to maximum plasma concentration of active metabolite Ia ([3]; 20 mg/day): 7.5 days
time of dosing to maximum plasma concentration of active metabolite Ia ([3]; 30 mg/day): 6.7 days

CCC(=O)[N-]S(=O)(=O)c1ccc(NC(=O)Cc2ccc(Br)c(Oc3cc(Cl)cc(C#N)c3)c2F)c(Cl)c1.[Na+] [MMSCs of formula Ib, sodium {[4-({[4-bromo-3-(3-chloro-5-cyanophenoxy)-2-fluorophenyl]acetyl}amino)-3-chlorophenyl]-sulfonyl}(propanoyl)azanide]
occurrence of a viral load reduction of 10 times and more ([1]; 20 mg versus Efavirenz 600 mg, p=0.053): tendency for a statistical difference
efficacy difference between the MMSCs of formula Ib therapy groups ([1]; 20 versus 40 mg/day groups, p=0.804): did not differ in effectiveness; also recorded: did not differ in efficacy
serious adverse events ([1]; HIV-1-infected patients): No serious adverse events were observed
effectiveness in reducing the viral load to <400 copies/ml ([1]; doses of 20 and 40 mg, over a period of 12 weeks, versus Efavirenz 600 mg/day): not inferior to Efavirenz
advantage of the 20 mg group over the Efavirenz 600 mg group ([1]; p=0.0237): statistically significant
development of HIV-1 resistance [1]: No development of HIV-1 resistance was established; also recorded: has not been established
viral load decrease [1]: −2.8±0.7
viral load change [1]: −3.3±0.7
frequency of achieving an undetectable HIV-1 RNA level ([1]; week 36, versus Efavirenz, p=0.408): did not statistically differ; also recorded: did not differ statistically
